Data published in article PMC11604048, “Constrained TACC3 peptidomimetics for a non-canonical protein–protein interface elucidate allosteric communication in Aurora-A kinase” (Chemical Science, 2024).
Like-named read-outs stand apart in the source and are kept apart here. *1 amine or outer side, *2 acyl side, *3 side chain or, on linkers, in order; H or OH if unused. Where a SMILES comes first, the peptide text is derived from it. Bridges are numbered along the chain shown (N, C = ends). [ ]: non-standard residue; d: D form. Biphenyl(4,4'-CH2)2 = c1cc(-c2ccc(C[*:2])cc2)ccc1C[*:1]; Maleimide(3,4-diyl) = O=C1NC(=O)C([*:2])=C1[*:1]; Pro(trans-4-F) = O=C(O)[C@@H]1C[C@@H](F)CN1; Phe(4-Br) = N[C@@H](Cc1ccc(Br)cc1)C(=O)O

Target: T1, Aurora-A122-403-C290A/C393A (Homo sapiens, UniProt O14965, C290A/C393A)
T1 construct: Human Aurora-A kinase domain 122-403 wild-type or C290A/ C393A mutant; His tag (pET30TEV vector) (N, cleaved yes); made in house; host or cells: E. coli RIL, co-expressed with lambda phosphatase (Aurora-A); tracer by solid phase synthesis
T1 sequence (O14965 122-403 C290A/C393A): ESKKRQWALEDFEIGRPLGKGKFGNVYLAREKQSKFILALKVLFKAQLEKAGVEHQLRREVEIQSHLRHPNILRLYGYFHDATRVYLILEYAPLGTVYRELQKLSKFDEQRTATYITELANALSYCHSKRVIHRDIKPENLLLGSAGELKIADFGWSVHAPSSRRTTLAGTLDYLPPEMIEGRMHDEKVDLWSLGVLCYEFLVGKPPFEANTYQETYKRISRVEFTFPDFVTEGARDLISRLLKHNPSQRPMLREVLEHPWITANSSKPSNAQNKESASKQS
Assay: Competition FA assay against FAM-Ahx-TACC3 522-536 tracer
Type: binding
Details: for fold enhanced inhibitory potency (IC50) compared to the WT peptide: competition FA IC50 ratio vs WT
Procedure: Once completed, the mixtures were transferred into SPPS fritted reaction vessels and washed with H2O (5X, 10 mL, 2 min), DMF (5X, 5mL, 2 min) and DCM (5X, 5 mL, 2 min). The clean resins were dried under vacuum and the cyclic peptides cleaved from the resin following the general procedures described in previous sections. After Et2O precipitation, the crude materials were freeze-dried and redissolved in H2O/MeCN/TFA 90/10/0.1% v/v for preparative HPLC purification.
All disulfide peptide variants (ox) were produced in situ from their free-thiol solid precursors. For this, 2 mg of the pure peptide materials were dissolved in aqueous DMSO 33% v/v to a 10 mM concentration and were left open to air oxidation at room temperature overnight. […]
the peptides were employed for FA competition assays and IC50 evaluation without further additional […]
Fluorescence anisotropy (FA) assays – General information.
All assays were performed using 384-well plates(Greiner Bio-one, UK). […]
produced as described previously.11 All samples were prepared in 25 mM Tris,150 mM NaCl, 5 mM MgCl2, pH= 7.5, unless otherwise stated, and tested in triplicate using an EnVisionTM 2103 MultiLabel plate reader (PerkinElmer; Waltham, MA, USA).The parameters were set as follows: Excitation wavelength = 480 nm (30 nm bandwidth) and emission wavelength = 535 nm (30 nm bandwidth). Measured data were processed and analysed as previously described.12 Specifically, the perpendicular intensity (P) and parallel intensity (S) were subtracted by the control values and used for calculations of intensity and anisotropy using the following Equations 1, 2, 3, 4, and 5:
I= (2PG) + S Eq. (SI − 5)
r = (S − PG) Eq. (SI − 6)
L = r − r௠௜௡ Eq. (SI − 7)
y = (k + x + [FL]) − ඥ(k + x + [FL]2 − 4 ∗ x ∗ [FL]) Eq. (SI − 8)
y = r + r௠௜௡ − r௠௔௫ Eq. (SI − 9)
Where I = total intensity; P = perpendicular intensity; S = parallel intensity; G = instrument factor; r = anisotropy; Lb = ligand bound fraction; λ = change in intensity between bound and unbound states which […]
FA direct binding assays. […]
starting from 700 μM, diluted over 24 points in a 1/2 regime using the FAM-Ahx-labeled peptides at a final fixed concentration of 50 nM per well.
FA competition assays were performed using the same plates and buffer as described above, with the initial […]
14 points in a 1/2 regime. […]
after 4 h of incubation to enable appropriate sample equilibration. To prevent sample oxidation, when sulfhydryl peptides were analyzed DTT was added to the buffer (5 mM). In competition mode, the average anisotropy and the average standard deviation of the values derived from equation SI-6 were calculated and fit to a sigmoidal logistic model (equation SI-9) using Origin 2021. When using peptides for which full […]
For consistency, all the data […]
indicating the corresponding SD. […]

[1] = as E1, Table S3 (mal): maleimide-constrained species, WT value is an individual replica control assay, mean ± SD, n = 3, SD, read-out: IC50 (mal)
[2] = as E1, oxidised (disulfide) species made in situ from 10 mM stock in aqueous DMSO 33% v/v, air, overnight, WT control (+DMSO) given the same DMSO incubation, mean ± SD, n = 3, read-out: IC50 (ox)
[3] = as E1, free-sulfhydryl (reduced) species, DTT 5 mM in buffer, WT control (+DTT), mean ± SD, n = 3, read-out: IC50 (red)

## CC(=O)N[C@@H](CC(C)C)C(=O)N[C@@H](CCC(=O)O)C(=O)N[C@H]1CSCc2ccc(cc2)-c2ccc(cc2)CSC[C@@H](C(=O)N[C@@H](CC(=O)O)C(=O)N2CCC[C@H]2C(=O)N[C@@H](C)C(=O)N[C@@H](CCC(=O)O)C(=O)N[C@H](C(=O)N[C@@H](CC(C)C)C(N)=O)C(C)C)NC(=O)[C@H](Cc2ccccc2)NC(=O)[C@H](CO)NC(=O)[C@H](CCC(=O)O)NC(=O)[C@H](CCC(=O)O)NC(=O)[C@H](CCCCN)NC1=O [TACC3 518-532 L520C/R526C (Bph)] (Ac-LECKEESFCDPAEVL-NH2; linker 3-9 via Biphenyl(4,4'-CH2)2)
  fold enhanced inhibitory potency (IC50) compared to the WT peptide: up to 4 fold

## CC(=O)N[C@@H](CC(C)C)C(=O)N[C@@H](CCC(=O)O)C(=O)N[C@@H](CC(C)C)C(=O)N[C@@H](CCCCN)C(=O)N[C@@H](CCC(=O)O)C(=O)N[C@@H](CCC(=O)O)C(=O)N[C@H]1CSCc2ccc(cc2)-c2ccc(cc2)CSC[C@@H](C(=O)N[C@H](C(=O)N[C@@H](CC(C)C)C(N)=O)C(C)C)NC(=O)[C@H](C)NC(=O)[C@@H]2CCCN2C(=O)[C@H](CC(=O)O)NC(=O)[C@H](CCCNC(=N)N)NC(=O)[C@H](Cc2ccccc2)NC1=O [TACC3 518-532 S524C/E530C (Bph)] (Ac-LELKEECFRDPACVL-NH2; linker 7-13 via Biphenyl(4,4'-CH2)2)
  fold enhanced inhibitory potency (IC50) compared to the WT peptide: up to 4 fold

## CC(=O)N[C@@H](CC(C)C)C(=O)N[C@@H](CCC(=O)O)C(=O)N[C@H]1CSCc2ccc(cc2)-c2ccc(cc2)CSC[C@@H](C(=O)N[C@@H](CC(=O)O)C(=O)N2C[C@H](F)C[C@H]2C(=O)N[C@@H](C)C(=O)N[C@@H](CCC(=O)O)C(=O)N[C@H](C(=O)N[C@@H](CC(C)C)C(N)=O)C(C)C)NC(=O)[C@H](Cc2ccc(Br)cc2)NC(=O)[C@H](CO)NC(=O)[C@H](CCC(=O)O)NC(=O)[C@H](CCC(=O)O)NC(=O)[C@H](CCCCN)NC1=O [TACC3 518-532-L/R-Bph-BrF/fP] (Ac-LECKEES[Phe(4-Br)]CD[Pro(trans-4-F)]AEVL-NH2; linker 3-9 via Biphenyl(4,4'-CH2)2)
SD, read-out: IC50
  IC50: 22 ± 1 µM

## CC(=O)N[C@@H](CC(C)C)C(=O)N[C@@H](CCC(=O)O)C(=O)N[C@@H](CC(C)C)C(=O)N[C@@H](CCCCN)C(=O)N[C@@H](CCC(=O)O)C(=O)N[C@@H](CCC(=O)O)C(=O)N[C@H]1CSCc2ccc(cc2)-c2ccc(cc2)CSC[C@@H](C(=O)N[C@H](C(=O)N[C@@H](CC(C)C)C(N)=O)C(C)C)NC(=O)[C@H](C)NC(=O)[C@@H]2C[C@@H](F)CN2C(=O)[C@H](CC(=O)O)NC(=O)[C@H](CCCNC(=N)N)NC(=O)[C@H](Cc2ccc(Br)cc2)NC1=O [TACC3 518-532-S/E-Bph-BrF/fP] (Ac-LELKEEC[Phe(4-Br)]RD[Pro(trans-4-F)]ACVL-NH2; linker 7-13 via Biphenyl(4,4'-CH2)2)
SD, read-out: IC50
  IC50: 16 ± 1 µM

## CC(=O)N[C@@H](CCC(=O)O)C(=O)N[C@@H](CCC(=O)O)C(=O)N[C@@H](CO)C(=O)N[C@@H](Cc1ccccc1)C(=O)N[C@@H](CCCNC(=N)N)C(=O)N[C@@H](CC(=O)O)C(=O)N1CCC[C@H]1C(=O)N[C@H]1CSC2=C(SC[C@@H](C(=O)NCC(=O)N[C@H](C(=O)NCC(=O)N[C@@H](C)C(N)=O)[C@@H](C)O)NC(=O)[C@H](C(C)C)NC(=O)[C@H](CCC(=O)O)NC1=O)C(=O)NC2=O [TACC3 522-536 A529C/L532C (mal)] (Ac-EESFRDPCEVCGTGA-NH2; linker 8-11 via Maleimide(3,4-diyl))
[1]
  IC50: 483 ± 58 µM

## CC(=O)N[C@@H](CCC(=O)O)C(=O)N[C@@H](CCC(=O)O)C(=O)N[C@@H](CO)C(=O)N[C@@H](Cc1ccccc1)C(=O)N[C@@H](CCCNC(=N)N)C(=O)N[C@@H](CC(=O)O)C(=O)N1CCC[C@H]1C(=O)N[C@H]1CSSC[C@@H](C(=O)NCC(=O)N[C@H](C(=O)NCC(=O)N[C@@H](C)C(N)=O)[C@@H](C)O)NC(=O)[C@H](C(C)C)NC(=O)[C@H](CCC(=O)O)NC1=O [TACC3 522-536 A529C/L532C (ox)] (Ac-EESFRDPCEVCGTGA-NH2; disulfide 8-11)
[2]
  IC50: ≥ 500 µM

## CC(=O)N[C@@H](CCC(=O)O)C(=O)N[C@@H](CCC(=O)O)C(=O)N[C@@H](CO)C(=O)N[C@@H](Cc1ccccc1)C(=O)N[C@@H](CCCNC(=N)N)C(=O)N[C@@H](CC(=O)O)C(=O)N1CCC[C@H]1C(=O)N[C@@H](CS)C(=O)N[C@@H](CCC(=O)O)C(=O)N[C@H](C(=O)N[C@@H](CS)C(=O)NCC(=O)N[C@H](C(=O)NCC(=O)N[C@@H](C)C(N)=O)[C@@H](C)O)C(C)C [TACC3 522-536 A529C/L532C (red)] (Ac-EESFRDPCEVCGTGA-NH2)
[3]
  IC50: ≥ 500 µM

## CC(=O)N[C@@H](CCC(=O)O)C(=O)N[C@@H](CCC(=O)O)C(=O)N[C@@H](CO)C(=O)N[C@@H](Cc1ccccc1)C(=O)N[C@@H](CCCNC(=N)N)C(=O)N[C@H]1CSC2=C(SC[C@@H](C(=O)N[C@H](C(=O)N[C@@H](CC(C)C)C(=O)NCC(=O)N[C@H](C(=O)NCC(=O)N[C@@H](C)C(N)=O)[C@@H](C)O)C(C)C)NC(=O)[C@H](C)NC(=O)[C@@H]3CCCN3C1=O)C(=O)NC2=O [TACC3 522-536 D527C/E530C (mal)] (Ac-EESFRCPACVLGTGA-NH2; linker 6-9 via Maleimide(3,4-diyl))
[1]
  IC50: 186 ± 50 µM

## CC(=O)N[C@@H](CCC(=O)O)C(=O)N[C@@H](CCC(=O)O)C(=O)N[C@@H](CO)C(=O)N[C@@H](Cc1ccccc1)C(=O)N[C@@H](CCCNC(=N)N)C(=O)N[C@H]1CSSC[C@@H](C(=O)N[C@H](C(=O)N[C@@H](CC(C)C)C(=O)NCC(=O)N[C@H](C(=O)NCC(=O)N[C@@H](C)C(N)=O)[C@@H](C)O)C(C)C)NC(=O)[C@H](C)NC(=O)[C@@H]2CCCN2C1=O [TACC3 522-536 D527C/E530C (ox)] (Ac-EESFRCPACVLGTGA-NH2; disulfide 6-9)
[2]
  IC50: ≥ 500 µM

## CC(=O)N[C@@H](CCC(=O)O)C(=O)N[C@@H](CCC(=O)O)C(=O)N[C@@H](CO)C(=O)N[C@@H](Cc1ccccc1)C(=O)N[C@@H](CCCNC(=N)N)C(=O)N[C@@H](CS)C(=O)N1CCC[C@H]1C(=O)N[C@@H](C)C(=O)N[C@@H](CS)C(=O)N[C@H](C(=O)N[C@@H](CC(C)C)C(=O)NCC(=O)N[C@H](C(=O)NCC(=O)N[C@@H](C)C(N)=O)[C@@H](C)O)C(C)C [TACC3 522-536 D527C/E530C (red)] (Ac-EESFRCPACVLGTGA-NH2)
[3]
  IC50: ≥ 500 µM

## CC(=O)N[C@H]1CSCc2ccc(cc2)-c2ccc(cc2)CSC[C@@H](C(=O)N[C@@H](C)C(=O)N[C@@H](CCC(=O)O)C(=O)N[C@H](C(=O)N[C@@H](CC(C)C)C(=O)NCC(=O)N[C@H](C(=O)NCC(=O)N[C@@H](C)C(N)=O)[C@@H](C)O)C(C)C)NC(=O)[C@H](CC(=O)O)NC(=O)[C@H](CCCNC(=N)N)NC(=O)[C@H](Cc2ccccc2)NC(=O)[C@H](CO)NC(=O)[C@H](CCC(=O)O)NC1=O [TACC3 522-536 E522C/P528C (Bph)] (Ac-CESFRDCAEVLGTGA-NH2; linker 1-7 via Biphenyl(4,4'-CH2)2)
As E1, Table S3 column (Bph): biphenyl-constrained species, WT value is an individual replica control assay, mean ± SD, n = 3, SD, read-out: IC50 (Bph)
  IC50: 280 ± 32 µM

## CC(=O)N[C@H]1CSSC[C@@H](C(=O)N[C@@H](C)C(=O)N[C@@H](CCC(=O)O)C(=O)N[C@H](C(=O)N[C@@H](CC(C)C)C(=O)NCC(=O)N[C@H](C(=O)NCC(=O)N[C@@H](C)C(N)=O)[C@@H](C)O)C(C)C)NC(=O)[C@H](CC(=O)O)NC(=O)[C@H](CCCNC(=N)N)NC(=O)[C@H](Cc2ccccc2)NC(=O)[C@H](CO)NC(=O)[C@H](CCC(=O)O)NC1=O [TACC3 522-536 E522C/P528C (ox)] (Ac-CESFRDCAEVLGTGA-NH2; disulfide 1-7)
[2]
  IC50: ≥ 500 µM
